Here are results for 17 compounds from ChEMBL document CHEMBL5523741, “Development of an Orally Bioavailable LCK PROTAC Degrader as a Potential Therapeutic Approach to T-Cell Acute Lymphoblastic Leukemia” (J Med Chem, 2024).

Molecules are shown by their SMILES. Converted amounts (≈) assume the structure as drawn. The source made the active and inactive calls. The rule behind the calls is not given here.

In data set [1] the target is T1, Protein cereblon/Tyrosine-protein kinase Lck (Homo sapiens, UniProt P06239+Q96SW2). The data set is described as follows: PROTAC activity at HiBit-tagged LCK/CRBN in human KOPT-K1 cells assessed as induction of LCK degradation incubated for 6 hrs by Nano-Glo HiBiT assay. Format: cell-based. For orientation: HiBiT is a short tag that completes a luciferase, so light tracks the accessible tagged protein.

For data set [2], the system named is KOPTK1. The data set is described as follows: Antiproliferative activity against human KOPT-K1 cells assessed as effect on cell viability measured for 72 hrs by celltiter glo assay. Type of data set: functional. Conditions: read-out: LC50 (the source's name). A general note: In ATP-based viability assays light output follows the ATP content of the culture.
Data set [3] is described as follows: Aqueous solubility of the compound incubated for 18 hrs by UPLC-SQDMS. Type of data set: physicochemical. As to conditions: buffer.
In data set [4] the target is T1, Protein cereblon/Tyrosine-protein kinase Lck. The data set is described as follows: PROTAC activity at HiBit-tagged LCK/CRBN in human KOPT-K1 cells assessed as induction of LCK degradation incubated for 6 hrs by Nano-Glo HiBiT assay relative to control. Type of data set: cell-based.
Target sequence in this assay (P06239 2-509 limits assumed): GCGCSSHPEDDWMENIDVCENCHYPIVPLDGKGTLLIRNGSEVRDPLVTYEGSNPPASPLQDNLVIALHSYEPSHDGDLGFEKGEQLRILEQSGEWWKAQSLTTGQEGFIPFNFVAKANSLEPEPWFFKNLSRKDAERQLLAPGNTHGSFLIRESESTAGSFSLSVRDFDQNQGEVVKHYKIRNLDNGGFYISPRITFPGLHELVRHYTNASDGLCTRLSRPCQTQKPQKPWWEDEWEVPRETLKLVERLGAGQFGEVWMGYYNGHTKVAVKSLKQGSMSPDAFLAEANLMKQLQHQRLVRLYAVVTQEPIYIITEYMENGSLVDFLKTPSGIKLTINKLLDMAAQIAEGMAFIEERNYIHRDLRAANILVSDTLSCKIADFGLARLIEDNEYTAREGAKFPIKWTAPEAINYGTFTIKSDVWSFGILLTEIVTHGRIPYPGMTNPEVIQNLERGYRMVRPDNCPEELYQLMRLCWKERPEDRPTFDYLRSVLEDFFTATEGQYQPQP
Target sequence in this assay (Q96SW2 whole entry partner): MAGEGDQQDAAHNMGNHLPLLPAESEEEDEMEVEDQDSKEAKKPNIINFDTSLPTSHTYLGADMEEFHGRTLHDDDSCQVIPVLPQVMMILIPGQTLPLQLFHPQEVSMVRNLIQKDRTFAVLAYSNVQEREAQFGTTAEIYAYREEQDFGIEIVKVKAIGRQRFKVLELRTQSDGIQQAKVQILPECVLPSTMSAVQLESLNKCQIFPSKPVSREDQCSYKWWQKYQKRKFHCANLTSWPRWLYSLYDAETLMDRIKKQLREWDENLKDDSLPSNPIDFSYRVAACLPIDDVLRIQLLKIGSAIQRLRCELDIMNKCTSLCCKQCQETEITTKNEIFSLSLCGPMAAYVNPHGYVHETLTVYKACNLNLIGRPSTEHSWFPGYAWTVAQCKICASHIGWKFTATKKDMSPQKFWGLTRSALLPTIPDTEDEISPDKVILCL
Data set [5] in a line: Metabolic stability in mouse liver microsomes assessed as half life in presence of NADPH by UPLC-MS/MS analysis. Type of data set: ADME, Microsome. (Liver microsomes are a subcellular fraction often used to study metabolism.)
Data set [6] in a line: Drug concentration in CD-1 mouse plasma at 30 mg/kg, po measured after 4 hrs by UPLC-MS/MS analysis. Type of data set: ADME, organism-based.
A short description of data set [7]: Apparent permeability of compound across apical to basolateral side in human Caco-2 cells. Format: ADME, cell-based.
Data set [8] can be described thus: Stability in CD-1 mouse plasma assessed as half life. Format: ADME, cell-free.
The nature of data set [9]: Apparent permeability of compound across basolateral to apical side in human Caco-2 cells. Format: ADME, cell-based.
Data set [10] can be described thus: Efflux ratio of apparent permeability across basolateral to apical over apical to basolateral in human Caco-2 cells. Type of data set: ADME, cell-based.
Data set [11] relates to KOPTK1. The data set is described as follows: Antiproliferative activity against human KOPT-K1 cells assessed as inhibition of cell growth at 100 nM measured for 160 hrs by celltiter glo assay. Type of data set: functional, cell-based.
Data set [12] relates to KOPTK1. Kind of data set: Downregulation of EPHB1 in human KOPT-K1 cells measured for 6 hrs by tandem mass tag proteomic assay. Format: functional, cell-based.
Data set [13] deals with KOPTK1. Kind of data set: Antiproliferative activity against human KOPT-K1 cells assessed as inhibition of cell growth at 100 nM measured for 18 hrs by celltiter glo assay. Type of data set: functional, cell-based.
The test system of data set [14] is KOPTK1. Kind of data set: Downregulation of CSK in human KOPT-K1 cells measured for 6 hrs by tandem mass tag proteomic assay. Type of data set: functional, cell-based.
For data set [15], the system named is KOPTK1. Kind of data set: Downregulation of CISH in human KOPT-K1 cells measured for 6 hrs by tandem mass tag proteomic assay. Type of data set: functional, cell-based.
Data set [16] is described as follows: Clearance in CD-1 mouse at 3 mg/kg, iv measured up to 24 hrs by LC-MS/MS analysis. Type of data set: ADME, organism-based. As to conditions: in vivo.
Data set [17] is described as follows: Oral bioavailability in CD-1 mouse at 10 mg/kg measured up to 24 hrs by LC-MS/MS analysis. Type of data set: ADME, organism-based. As to conditions: in vivo.

`Cc1nc(Nc2ncc(C(=O)Nc3c(C)cccc3Cl)s2)cc(N2CCC(CN3CCN(c4ccc(C5CCC(=O)N(C)C5=O)cc4)CC3)CC2)n1` (centres undefined): the outcome in [1] was inactive. For the same compound, the CC50 in the data set on KOPTK1 [2] worked out at 1.98 nM.

As usually defined, the solubility is how much of the substance goes into solution per volume. What is called Emax is the greatest response seen or fitted, relative to the assay's reference. By half-life is commonly meant how long it takes for the measured level to halve. As usually defined, the Papp A→B is the apparent permeability from the apical to the basolateral side of a cell layer. In general, Papp B→A refers to the apparent permeability from the basolateral to the apical side of a cell layer. Compound `Cc1nc(Nc2ncc(C(=O)Nc3c(C)cccc3Cl)s2)cc(N2CCN(C(=O)CCCN3CC4CC3CN4c3ccc(C4CCC(=O)NC4=O)cc3)CC2)n1` (centres undefined) came in with a solubility at 18 h in [3] of 15.2 µM (≈ 12.1 µg/mL). For the same compound, the Emax in data set [4] was 88%. The figures for the half-life in [5] and in data set [8] were 0.54 h and 4.25 h, respectively. Further, the concentration at 4 h in [6] stood at 1.19 ng/mL. The Papp A→B in [7] came out at 1.32 ×10⁻⁶ cm/s. Further, in [9], the basolateral-to-apical permeability (Papp B→A) turned out to be 1.55 ×10⁻⁶ cm/s.

Turning to `Cc1nc(Nc2ncc(C(=O)Nc3c(C)cccc3Cl)s2)cc(N2CCC3(CCN(c4ccc(C5CCC(=O)NC5=O)cc4)CC3)CC2)n1` (centres undefined), the Emax in data set [4] was under 60%. The half-life in [5] was 2.2 h.

`Cc1nc(Nc2ncc(C(=O)Nc3c(C)cccc3Cl)s2)cc(N2CCN(CCCC(=O)N3CCN(c4ccc(C5CCC(=O)NC5=O)cc4)CC3)CC2)n1` (centres undefined): the solubility at 18 h in data set [3] was determined as 0.15 µM (≈ 0.118 µg/mL). In data set [4], the Emax worked out at 93%. Besides, the half-life in [5] is 1.06 h.

Compound `Cc1nc(Nc2ncc(C(=O)Nc3c(C)cccc3Cl)s2)cc(N2CCN(CCCN3CCC(c4ccc(C5CCC(=O)NC5=O)cc4)CC3)CC2)n1` (centres undefined) came in with a solubility at 18 h in data set [3] of 2.57 µM (≈ 1.94 µg/mL). In data set [4], the Emax was 87%. The figures for the half-life in [5] and in [8] were 10 h and 4.98 h, respectively. This compound also had a concentration at 4 h in data set [6] of 54 ng/mL. In addition, the Papp A→B in data set [7] was 1.04 ×10⁻⁶ cm/s. In [9], the Papp B→A came to 9.82 ×10⁻⁶ cm/s.

By efflux ratio is commonly meant a quotient of directional permeabilities that is used to spot active efflux. As to `Cc1nc(Nc2ncc(C(=O)Nc3c(C)cccc3Cl)s2)cc(N2CCC(N(C)C3CCN(c4ccc(C5CCC(=O)NC5=O)cc4)CC3)CC2)n1` (centres undefined), the efflux ratio in data set [10] worked out at 6.56. Further, in data set [4], the Emax is under 60%. The half-life in data set [5] was 2.1 h; in [8], 3.84 h. Besides, the concentration at 4 h in data set [6] was 207 ng/mL. In addition, the Papp A→B in data set [7] was 1.93 ×10⁻⁶ cm/s. Moreover, the Papp B→A in data set [9] was 12.7 ×10⁻⁶ cm/s.

In data set [3], `Cc1nc(Nc2ncc(C(=O)Nc3c(C)cccc3Cl)s2)cc(N2CCN(CCCN3CCC4(CC3)CCN(c3ccc(C5CCC(=O)NC5=O)cc3)CC4)CC2)n1` (centres undefined) gave a solubility at 18 h of 1.4 µM (≈ 1.16 µg/mL). The Emax in data set [4] stood at 93%. Besides, the half-life in data set [5] is 10 h; in data set [8], 47.4 h. Besides, the concentration at 4 h in data set [6] amounted to 18 ng/mL. Moreover, the Papp A→B in [7] is 0.231 ×10⁻⁶ cm/s. Moreover, in data set [9], the Papp B→A was 5.3 ×10⁻⁶ cm/s.

The compound `Cc1nc(Nc2ncc(C(=O)Nc3c(C)cccc3Cl)s2)cc(N2CCN(CCCC(=O)N3CCC4(CC3)CCN(c3ccc(C5CCC(=O)NC5=O)cc3)CC4)CC2)n1` (centres undefined) came in with a solubility at 18 h in [3] of 1.5 µM (≈ 1.28 µg/mL). Moreover, the Emax in data set [4] was found to be 86%. In data set [5], the half-life is 1.2 h.

As to `Cc1nc(Nc2ncc(C(=O)Nc3c(C)cccc3Cl)s2)cc(N2CCN(CCCC(=O)N3CC4CC3CN4c3ccc(C4CCC(=O)NC4=O)cc3)CC2)n1` (centres undefined), the solubility at 18 h in [3] stood at 0.19 µM (≈ 0.152 µg/mL). Further, the Emax in data set [4] came to 90%. Further, the half-life in [5] was 0.32 h.

Turning to `Cc1nc(Nc2ncc(C(=O)Nc3c(C)cccc3Cl)s2)cc(N2CCN(CC3CCN(c4ccc(C5CCC(=O)NC5=O)cc4)CC3)CC2)n1` (centres undefined), in data set [4], the Emax is under 60%. For the same compound, in data set [5], the half-life is 3.5 h.

Regarding `Cc1nc(Nc2ncc(C(=O)Nc3c(C)cccc3Cl)s2)cc(N2CCN(Cc3ccc(C4CCC(=O)NC4=O)cc3)CC2)n1` (centres undefined), the solubility at 18 h in [3] was 1.99 µM (≈ 1.28 µg/mL). In addition, the Emax in data set [4] is under 60%. Besides, the half-life in data set [5] was 1.23 h.

In [3], `Cc1nc(Nc2ncc(C(=O)Nc3c(C)cccc3Cl)s2)cc(N2CCN(CCCN3CCN(c4ccc(C5CCC(=O)NC5=O)cc4)CC3)CC2)n1` (centres undefined) came in with a solubility at 18 h of 2.08 µM (≈ 1.58 µg/mL). For the same compound, the Emax in data set [4] was found to be 90%. Also, the half-life in [5] is 6.9 h.

In the case of `Cc1nc(Nc2ncc(C(=O)Nc3c(C)cccc3Cl)s2)cc(N2CCN(CCCC(=O)N3CCC(CN4CCN(c5ccc(C6CCC(=O)NC6=O)cc5)CC4)CC3)CC2)n1` (centres undefined), the solubility at 18 h in data set [3] was found to be 0.65 µM (≈ 0.574 µg/mL). Further, the Emax in [4] was 84%. In addition, the half-life in data set [5] is 0.67 h.

Broadly, the DC50 is the concentration at which degradation of the target reaches its halfway point. On to `Cc1nc(Nc2ncc(C(=O)Nc3c(C)cccc3Cl)s2)cc(N2CCN(CCN3CCN(c4ccc(C5CCC(=O)NC5=O)cc4)CC3)CC2)n1` (centres undefined), for which, in data set [3], the solubility at 18 h was 1.87 µM (≈ 1.39 µg/mL). Further, the Emax in data set [4] turned out to be 62%. The DC50 in data set [1] is 53 nM. Besides, the half-life in [5] was 4 h.

As for `Cc1nc(Nc2ncc(C(=O)Nc3c(C)cccc3Cl)s2)cc(N2CCN(CCO)CC2)n1`, in the data set on KOPTK1 [11], the result was inactive. Further, the result in the data set with KOPTK1 [12], with KOPTK1 [13], in the data set on KOPTK1 [14] and in the data set on KOPTK1 [15] was Active.

With `Cc1nc(Nc2ncc(C(=O)Nc3c(C)cccc3Cl)s2)cc(N2CCN(CCCN3CC4CC3CN4c3ccc(C4CCC(=O)NC4=O)cc3)CC2)n1` (centres undefined), in data set [3], the concentration in solution (solubility at 18 h) was 14.5 µM (≈ 11.2 µg/mL). Further, the Emax in data set [4] was 83%. Besides, the half-life in data set [5] is 2.6 h.

By clearance is commonly meant the volume of plasma or blood freed of the substance per unit of time. Lower therefore signals a low capacity for elimination. A word on the bioavailability: it is dose-corrected exposure relative to a reference, in per cent. For the compound `Cc1nc(Nc2ncc(C(=O)Nc3c(C)cccc3Cl)s2)cc(N2CCN(CCCN3CCN(Cc4ccc(C5CCC(=O)NC5=O)cc4)CC3)CC2)n1` (centres undefined), the efflux ratio in data set [10] was determined as 11.6. Moreover, the concentration in solution in [3] (solubility at 18 h) was 7.54 µM (≈ 5.82 µg/mL). Moreover, the Emax in data set [4] was found to be 84%. Further, the DC50 in data set [1] came to 4.48 nM. Further, the half-life in data set [5] was 10 h; in data set [8], 30.1 h. Besides, the Papp A→B in [7] is 1.15 ×10⁻⁶ cm/s. The same compound came in with a clearance in data set [16] of 169 mL/min/kg. Moreover, the Papp B→A in data set [9] was determined as 13.3 ×10⁻⁶ cm/s. The bioavailability in [17] came out at 3.1%.
